Where two headings read alike, the source gives them in different places.
Experiments:
Rex1-RFP mESCs = assay: Flow cytometry of Rex1-RFP reporter mESCs (bright, intermediate, dim subpopulations); assay type: cell-based, mouse; settings: 3 days; for Bright subpopulation / Dim subpopulation / Intermediate + Dim / Intermediate subpopulation: LIF+
Method: . Rex1-RFP mESCs expressing Rex1 promoter reporter were cultured in 12-well plates until 30% confluent, treated with 0 mM, 200 mM, and 300 mM sorbitol for 3 days, trypsinized, and cell suspensions were assayed by flow cytometry. Arbitrary thresholds (vertical red lines) were drawn at 5×10^3 on the X-axis between the middle of the two peaks and at 2 standard deviations above the mean of the parental (before infection) dim population shown in the bottom panel. Areas in parental dim, intermediate dim, and bright were defined by the 2 vertical red lines and were quantified as pixels using Image J from data in (FIG. 25A) to give histograms in (FIG. 25B).
FIGS. 26A and 26B. Viable Rex1 promoter reporter responds with stress treatment in a dose-dependent manner in flow cytometry assay. mESCs expressing Rex1 promoter reporter were cultured in 12-well plates till 30% confluence. Cells were then treated with 200-300 mM of sorbitol in 25 mM increments for 3 days. After trypsinization, the cell suspensions were subjected for flow cytometry assay. An arbitrary threshold was drawn at 5×10^3 on the x-axis and another near the low point between the bright peak and the dimmer peak to its left (FIG. 26A). […] Intermediate and bright groups were also defined by the two vertical red lines. Area sizes of the two peaks were quantified using Image J. The histogram bars (FIG. 26B) are derived by three independent experiments, one of which is shown in (FIG. 26A), errors bars showing s.e.m., One-way ANOVA was performed followed by Dunnett's post hoc test using 0 mM as reference for parental dim, intermediate dim, and bright separately.
Flow cytometric analysis of mESCs expressing pluripotency reporters. Fluorescence determination by the plate reader reported an averaged biochemical result from a population of cells inside the tissue culture vessel. […] This time point was designated as time zero. The cells were then treated with different sorbitol concentrations for 1-3 days. At each time point, cells were trypsinized and re-suspended in ice-cold D-PBS for flow cytometry assay using an LSR Fortessa flow cytometer (BD biosciences) and the FACS Diva Software version 7.0 (BD biosciences). Non-stressed mESCs that express Oct4-copGFP and/or Rex1-mApple and the non-modified, parental mESCs were used to set up the parameters that define the fluorescent cells and non-fluorescent cells.
From the histogram of FACS, two peaks are seen. The right peak represents the bright fluorescent potent ESCs. The left peak represents the dim fluorescent non-potent ESCs. An arbitrary vertical line is drawn here at the 5×10^3 position on the PE-A axis to separate the low potency ESCs. The peak areas were calculated using Image J by counting the area pixels.

Rex1 = assay: Immunoblot of endogenous Rex1 protein in Rex1-RFP ESCs; assay type: cell-based, mouse; settings: 3 days
Method: FIG. 27. Rex1 promoter RFP have a stress dose-dependent loss of endogenous Rex1 protein corresponding to dose-dependent loss of Rex1 activity shown in FIG. 24. (A) Rex1-RFP mESCs expressing cultured until 30% confluent, treated with 0 mM, 200-300 mM sorbitol in 25 mM increments for 3 days (as in FIG. 24), lysed, size fractionated by SDS-PAGE, blotted, probed for Rex1 and ACTB proteins and analyzed for changes compared to time zero and for stress dose responses. The histogram bars are derived from three independent experiments, one of which is shown in the top panel of FIG. 27, shown are X+/−s.e.m., n=3, (a) is P<0.01 and (b) indicates not significant. FIG. 27, bottom panel.
Immunoblot. After treatment, the ESCs were rinsed with PBS, lysed with RIPA buffer supplemented with protease inhibitors and sonicated briefly. Total protein concentration was determined using Pierce BCA protein assay reagent admixed with Laemmli sample buffer, and boiled for 5 min. Equal total protein amounts from the lysates were size-fractionated by 5-20% gradient SDS-PAGE and transferred onto nitrocellulose membrane. Rex1 […] signals were detected using ECL reagent with X-ray films and quantified using ImageJ 1.48v software (NIH, USA).
Finally it was tested whether endogenous Rex1 protein levels decreased commensurately with decreases in Rex1-RFP activity levels assayed in FIG. 24. Rex1-RFP ESCs were cultured for 3 days with 0-300 mM sorbitol and assayed by immunoblot for endogenous Rex1 levels normalized to ACTB loading controls and with time zero unstressed Rex1 set to 100 as a baseline level. Whereas stress-induced decrease in Rex1 activity in FIG. 24 were 20% and 70% at 200 mM and 300 mM sorbitol, respectively endogenous Rex1 protein losses were 30% and 70% at 200 mM and 300 mM, respectively (FIG. 27). Through the series from 200 mM to 300 mM sorbitol there was generally good agreement between activity level and endogenous protein level for Rex1 at 3 days of stress and with Rex1 protein loss at 1 day (Example 2). […]

Compound: OC[C@@H](O)[C@@H](O)[C@H](O)[C@@H](O)CO [sorbitol]
- decrease in high activity Rex1 subpopulation (Rex1-RFP mESCs; 0 to 300 mM): 20%
- decrease in the bright group (Rex1-RFP mESCs; 0 to 300 mM): 21.5%
- increase in parental dim ESCs (Rex1-RFP mESCs; 0 to 300 mM): 15.8%
- increase in the low Rex1 activity subpopulation (Rex1-RFP mESCs; 0 to 300 mM): 2.8 fold
- total change toward intensity decrease (Rex1-RFP mESCs; 0 to 300 mM): 40.4 % of cells
- Bright subpopulation (Rex1-RFP mESCs; 200 mM): 77.1%
- Dim subpopulation (Rex1-RFP mESCs; 200 mM): 12.2%
- Intermediate + Dim (Rex1-RFP mESCs; 200 mM): 22.9%
- Intermediate subpopulation (Rex1-RFP mESCs; 200 mM): 10.7%
- Bright subpopulation (Rex1-RFP mESCs; 225 mM): 75.6%
- Dim subpopulation (Rex1-RFP mESCs; 225 mM): 13.7%
- Intermediate + Dim (Rex1-RFP mESCs; 225 mM): 24.4%
- Intermediate subpopulation (Rex1-RFP mESCs; 225 mM): 10.7%
- Bright subpopulation (Rex1-RFP mESCs; 250 mM): 72%
- Dim subpopulation (Rex1-RFP mESCs; 250 mM): 16.6%
- Intermediate + Dim (Rex1-RFP mESCs; 250 mM): 28%
- Intermediate subpopulation (Rex1-RFP mESCs; 250 mM): 11.4%
- Bright subpopulation (Rex1-RFP mESCs; 275 mM): 71.9%
- Dim subpopulation (Rex1-RFP mESCs; 275 mM): 17.1%
- Intermediate + Dim (Rex1-RFP mESCs; 275 mM): 28.1%
- Intermediate subpopulation (Rex1-RFP mESCs; 275 mM): 11%
- Bright subpopulation (Rex1-RFP mESCs; 300 mM): 61.8+/−3.7%
- Dim subpopulation (Rex1-RFP mESCs; 300 mM): 24.4+/−2.9%
- Intermediate + Dim (Rex1-RFP mESCs; 300 mM): 28.1%
- Intermediate subpopulation (Rex1-RFP mESCs; 300 mM): 13.8+/−2.1%
- Bright subpopulation (Rex1-RFP mESCs; 300 mM, listed as Sorbitol): 61.8%
- Dim subpopulation (Rex1-RFP mESCs; 300 mM, listed as Sorbitol): 24.4%
- Intermediate subpopulation (Rex1-RFP mESCs; 300 mM, listed as Sorbitol): 13.8%
- increase in intermediate dim ESCs (Rex1-RFP mESCs; to 300 mM): 3.1%
- endogenous Rex1 protein loss (Rex1; 200 mM): 30%
- endogenous Rex1 protein loss (Rex1; 300 mM): 70%
- endogenous Rex1 protein (Rex1; 225-300 mM, not at 200 mM): significantly lower
- lethality in mESCs (mESCs; 200 mM): nonlethal
- lethality in mESCs (mESCs; 400 mM): lethal
